In ChEMBL document CHEMBL1629585, “Nationwide survey of CTX-M-type extended-spectrum beta-lactamases among Klebsiella pneumoniae isolates in Slovenian hospitals” (2009):
≈ marks a conversion by molar mass, not a printed value.

Key:
[1] = test system: Klebsiella pneumoniae; assay: Antibacterial activity against Klebsiella pneumoniae C expressing CTX-M group 1 beta-lactamase by Etest method; format: functional
[2] = test system: Escherichia coli; assay: Antibacterial activity against Escherichia coli TrC A expressing Klebsiella pneumoniae A blaCTX-M beta-lactamase by Etest method; format: functional
[3] = test system: Klebsiella pneumoniae; assay: Antibacterial activity against Klebsiella pneumoniae D expressing CTX-M group 1 beta-lactamase by Etest method; format: functional
[4] = test system: Klebsiella pneumoniae; assay: Antibacterial activity against Klebsiella pneumoniae B expressing CTX-M group 1 beta-lactamase by Etest method; format: functional
[5] = test system: Escherichia coli; assay: Antibacterial activity against Escherichia coli TrC C expressing Klebsiella pneumoniae C blaCTX-M beta-lactamase by Etest method; format: functional
[6] = test system: Klebsiella pneumoniae; assay: Antibacterial activity against Klebsiella pneumoniae A expressing CTX-M group 1 beta-lactamase by Etest method; format: functional
[7] = test system: Escherichia coli; assay: Antibacterial activity against Escherichia coli TrC B expressing Klebsiella pneumoniae B blaCTX-M beta-lactamase by Etest method; format: functional
[8] = test system: Klebsiella pneumoniae; assay: Antibacterial activity against Klebsiella pneumoniae expressing CTX-M group 1 beta-lactamase by Etest method; format: functional
[9] = test system: Escherichia coli; assay: Antibacterial activity against rifampicin resistant Escherichia coli J53-2 by Etest method
[10] = test system: Klebsiella pneumoniae; assay: Antibacterial activity against Klebsiella pneumoniae D expressing CTX-M group 1 beta-lactamase by Etest method in presence of Tazobactam; format: functional
[11] = test system: Klebsiella pneumoniae; assay: Antibacterial activity against Klebsiella pneumoniae C expressing CTX-M group 1 beta-lactamase by Etest method in presence of Tazobactam; format: functional
[12] = test system: Klebsiella pneumoniae; assay: Antibacterial activity against Klebsiella pneumoniae B expressing CTX-M group 1 beta-lactamase by Etest method in presence of Tazobactam; format: functional
[13] = test system: Klebsiella pneumoniae; assay: Antibacterial activity against Klebsiella pneumoniae A expressing CTX-M group 1 beta-lactamase by Etest method in presence of Tazobactam; format: functional
[14] = test system: Klebsiella pneumoniae; assay: Antibacterial activity against Klebsiella pneumoniae expressing CTX-M group 1 beta-lactamase by Etest method in presence of Tazobactam; format: functional
[15] = test system: Escherichia coli; assay: Antibacterial activity against rifampicin resistant Escherichia coli J53-2 by Etest method in presence of Tazobactam; format: functional
[16] = test system: Escherichia coli; assay: Antibacterial activity against Escherichia coli TrC A expressing Klebsiella pneumoniae A blaCTX-M beta-lactamase by Etest method in presence of Tazobactam; format: functional
[17] = test system: Escherichia coli; assay: Antibacterial activity against Escherichia coli TrC B expressing Klebsiella pneumoniae B blaCTX-M beta-lactamase by Etest method in presence of Tazobactam; format: functional
[18] = test system: Escherichia coli; assay: Antibacterial activity against Escherichia coli TrC C expressing Klebsiella pneumoniae C blaCTX-M beta-lactamase by Etest method in presence of Tazobactam; format: functional

Row | Compound | MIC50 [1] | MIC90 [1] | MIC [2] | MIC50 [3] | MIC90 [3] | MIC50 [4] | MIC90 [4] | MIC [5] | MIC [6] | MIC50 [6] | MIC90 [6] | MIC [7] | MIC [8] | MIC50 [8] | MIC90 [8] | MIC [9] | MIC [1] | MIC [4] | MIC [11] | MIC [12] | other results
1 | O=C(O)c1cn(C2CC2)c2cc(N3CCNCC3)c(F)cc2c1=O [CIPROFLOXACIN] | > 32 µg/mL | > 32 µg/mL | ≤ 0.125 µg/mL | > 32 µg/mL | > 32 µg/mL | > 32 µg/mL | > 32 µg/mL | ≤ 0.125 µg/mL | 0.38 µg/mL (≈ 1.15 µM) | 1 µg/mL (≈ 3.02 µM) | 6 µg/mL (≈ 18.1 µM) | ≤ 0.125 µg/mL | 0.032 µg/mL (≈ 0.0966 µM) | 16 µg/mL (≈ 48.3 µM) | > 32 µg/mL | ≤ 0.125 µg/mL |  |  |  |  | 
2 | C[C@@H](O)[C@H]1C(=O)N2C(C(=O)O)=C(SCCNC=N)C[C@H]12 [IMIPENEM ANHYDROUS] | 0.19 µg/mL (≈ 0.635 µM) | 0.38 µg/mL (≈ 1.27 µM) |  | 0.25 µg/mL (≈ 0.835 µM) | 0.25 µg/mL (≈ 0.835 µM) | 0.19 µg/mL (≈ 0.635 µM) | 0.19 µg/mL (≈ 0.635 µM) |  | 0.19 µg/mL (≈ 0.635 µM) | 0.25 µg/mL (≈ 0.835 µM) | 0.38 µg/mL (≈ 1.27 µM) |  | 0.19 µg/mL (≈ 0.635 µM) | 0.25 µg/mL (≈ 0.835 µM) | 0.5 µg/mL (≈ 1.67 µM) |  | 0.19 µg/mL (≈ 0.635 µM) | 0.125 µg/mL (≈ 0.418 µM) |  |  | MIC [3]: 0.19 µg/mL (≈ 0.635 µM)
3 | CCN1CCN(C(=O)N[C@@H](C(=O)N[C@@H]2C(=O)N3[C@@H]2SC(C)(C)[C@@H]3C(=O)O)c2ccccc2)C(=O)C1=O [PIPERACILLIN] |  |  | > 64 µg/mL |  |  |  |  | > 64 µg/mL |  |  |  | > 64 µg/mL |  |  |  | 4 µg/mL (≈ 7.73 µM) |  |  | 3 µg/mL | 32 µg/mL | MIC [10]: 4 µg/mL; MIC50 [10]: 12 µg/mL; MIC90 [10]: 24 µg/mL; MIC50 [11]: > 256 µg/mL; MIC90 [11]: > 256 µg/mL; MIC50 [12]: 64 µg/mL; MIC90 [12]: > 256 µg/mL; MIC [13]: 2 µg/mL; MIC50 [13]: 3 µg/mL; MIC90 [13]: 12 µg/mL; MIC [14]: 3 µg/mL; MIC50 [14]: 12 µg/mL; MIC90 [14]: > 256 µg/mL
4 | C[C@]1(Cn2ccnn2)[C@H](C(=O)O)N2C(=O)C[C@H]2S1(=O)=O [TAZOBACTAM] |  |  |  |  |  |  |  |  |  |  |  |  |  |  |  |  |  |  | > 64 µg/mL | > 64 µg/mL | MIC [13]: 4 µg/mL; MIC [15]: 4 µg/mL; MIC [16]: 4 µg/mL; MIC [17]: 16 µg/mL; MIC [18]: 16 µg/mL
5 | NC[C@H]1O[C@H](O[C@H]2[C@H](O)[C@@H](O[C@H]3O[C@H](CO)[C@@H](O)[C@H](N)[C@H]3O)[C@H](N)C[C@@H]2N)[C@H](N)C[C@@H]1O [TOBRAMYCIN] |  |  | 32 µg/mL (≈ 68.4 µM) |  |  |  |  | 16 µg/mL (≈ 34.2 µM) | 32 µg/mL (≈ 68.4 µM) |  |  | 32 µg/mL (≈ 68.4 µM) |  |  |  | 1 µg/mL (≈ 2.14 µM) | 32 µg/mL (≈ 68.4 µM) | 32 µg/mL (≈ 68.4 µM) |  |  | 
6 | GENTAMICIN | 128 µg/mL | > 256 µg/mL | 4 µg/mL |  |  |  |  | 16 µg/mL |  |  |  | 32 µg/mL |  | 64 µg/mL | > 256 µg/mL |  |  |  |  |  | 
